{
  "source": "patent US11596692B1",
  "about": "(Incyte Corporation, priority 2018, dated 2023)",
  "key": {"[1]": {"system": "IRF3 activation in PD-L1 high HEK293T STING reporter cell line", "assay": "IRF3 activation in HEK293T STING reporter cells, high PD-L1", "format": "cell-based, human", "conditions": "for EC50: 20 hours; for Potency shift: with compound P27 (1 μM) versus no competition", "experimental": "(§1) HEK293T STING reporter cell line was purchased from Invivogen and expressed low level of PD-L1. This cell line was then engineered at Incyte Research Institute to overexpress human PD-L1. Both PD-L1 high and PD-L1 low HEK293T cell lines were plated at 100,000 cells/100 μL/well in 10% fetal calf serum-containing DMEM culture medium in a 96-well flat bottom plate. Serial dilutions of PD-L1 small molecule-conjugated STING agonists were then added to the corresponding wells, and incubated for 20 hours at 37° C. In a competition study setting, 1 μM of a PD-L1 small molecule was added in the corresponding wells to compete with the binding of PD-L1 small molecule-conjugated STING agonists. At the end of the incubation, the culture supernatants were carefully removed from each well, and the amount of IRF3 activation was determined by adding Quanti-Blue substrate in accordance with the manufacturer's protocol.\n(§2) 293T-Dual hSTING-R232 (ISG/KI-IFNb) cells that were generated from 293T-Dual Null (ISG/KI-IFNb) cells by stable transfection of the R232 isoform of human STING were purchased from Invivogen (Invivogen #293d-r232).\n(§3) This cell line expresses an ISRE-inducible SEAP (secreted embryonic alkaline phosphatase) reporter construct, which monitors the activation of interferon regulatory factor (IRF) and its binding to ISRE (IFN-stimulated response elements). These reporter cells express low level of PD-L1. Human PD-L1 was then overexpressed in these cells through stable transfection.\n(§4) These 293T-Dual hSTING-R232 reporter cells as well as293T-Dual hSTING-R232 reporter cells overexpressing huPD-L1 were treated with various concentrations of STING compounds for 20 hours. After 20 hours, interferon regulatory factor (IRF) activity was assessed by measuring SEAP levels in the supernatant using QUNTI-Blue. EC50 values were generated by curve fit in Prism software."}, "[2]": {"system": "IRF3 activation in PD-L1 low HEK293T STING reporter cell line", "assay": "IRF3 activation in HEK293T STING reporter cells, low PD-L1", "format": "cell-based, human", "conditions": "20 hours, read-out: IRF Activation EC50 (nM), Low PD-L1", "experimental": "as §1, §2, §3, §4"}, "[3]": {"target": "T1, PD-L1 (Homo sapiens (Human), UniProt Q9NZQ7)", "T1 sequence (Q9NZQ7 19-290)": "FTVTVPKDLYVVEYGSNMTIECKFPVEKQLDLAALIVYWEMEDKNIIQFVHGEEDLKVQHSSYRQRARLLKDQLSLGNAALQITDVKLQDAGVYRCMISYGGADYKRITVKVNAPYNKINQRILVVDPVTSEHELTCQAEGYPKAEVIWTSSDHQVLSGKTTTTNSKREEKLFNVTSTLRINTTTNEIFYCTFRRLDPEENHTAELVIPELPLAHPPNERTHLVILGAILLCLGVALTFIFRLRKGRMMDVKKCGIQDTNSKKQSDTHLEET", "assay": "PD-L1 surface levels on HEK293T STING reporter cells, high PD-L1", "format": "cell-based", "experimental": "(§5) To determine PD-L1 expression on HEK cells after treatment of PD-L1-small molecule conjugated STING agonists, cells were harvested at 20 hours post-treatment. Single cell suspensions were then stained with phycoerythrin-conjugated anti-PD-L1 antibody (BD Bioscience), and the PD-L1 expression were then analyzed by flow cytometry. Mean fluorescence intensity was used as the relative level of surface PD-L1 expression on cells (FIG. 1 and Table 6).\n(§6) Also, cells were stained with PE-conjugated anti-human PD-L1 antibody to determine surface PD-L1 expression. Cell acquisition was performed on BD LSRFortessa X-20 (BD Biosciences). Data was analyzed using FlowJo software. IC50 values were calculated using Prism Software."}, "[4]": {"target": "T1, PD-L1", "assay": "PD-L1 surface levels on HEK293T STING reporter cells, low PD-L1", "format": "cell-based", "experimental": "as §5, §6"}, "[5]": {"system": "IFNβ production in CD11b+ monocytes", "assay": "IFN-beta induction in CD11b+ monocytes from healthy donor PBMC", "format": "cell-based, human", "conditions": "CD11b+ monocyte cultures, 20 hours, mean ± SEM", "experimental": "(§7) CD11b^+ cells were isolated from healthy PBMCs as well as Pleural effusion samples using Miltenyi isolation kit according to manufacturer's protocol. Cells were seeded in 96 well plates at the density of 300,000 cells/wells, and then treated with various concentrations of compounds for 20 hours. After 20 hours, IFN-beta secretion levels were evaluated in the culture supernatants by MSD singleplex assay. EC50 values were calculated using Prism software.\n(§8) Different naked STING agonisst and PD-L1-targeted small molecule-STING agonist conjugates were added to CD11b^+ monocytes cultures isolated from healthy donor blood or lung cancer patients' pleural effusions. Culture supernatants were collected 20 hours later and IFNβ production were determined using MSD singleplex assay."}, "[6]": {"system": "IFNβ production in CD11b+ monocytes", "assay": "IFN-beta induction in CD11b+ monocytes from lung cancer pleural effusions", "format": "cell-based, human", "conditions": "CD11b+ monocyte cultures, lung cancer pleural effusion, 20 hours; read-out: EC50 for IFNβ induction, Cancer patient", "experimental": "as §7, §8"}, "[7]": {"target": "T1, PD-L1", "assay": "Direct method for PD-L1 internalization in CHO-PD-L1 cells", "format": "cell-based", "conditions": "40 nM pHrodo-labelled antibody, 5 to 16 hours, versus IgG control", "experimental": "Endocytosis or internalization of PD-L1 was measured by two different methods, one direct and the other indirect. In the direct method, an anti PD-L1 antibody labeled with a pH sensitive fluorophore is incubated with PD-L1 expressing cells. Upon internalization and trafficking of the antibody-PD-L1 complex to low pH endosomes, fluorescence is emitted. In the indirect method, cell surface PD-L1 is measured using an anti PD-L1 antibody after incubation with a compound to determine remaining, non-internalized receptor.\nFor the direct measurement, biotinylated anti-PD-L1 antibody (BPS Biosciences) or Atezolizumab, biotinylated with a 20-fold excess of biotin using the EZ-Link™ Sulfo-NHS-LC-Biotin reagents (ThermoFisher), were labeled with pHrodo™ Red Avidin (Life Technologies) conjugate. Equimolar solutions of the antibody and pHrodo™ Red avidin (4.2 uM each) were incubated on ice for 2 hours in the dark in a buffer composed of 40 mM Tris-HCl, pH 8.0, 110 mM NaCl, 2.2 mM KCl, 20% glycerol, and 1% bovine serum albumin The mixture was centrifuged for 1 minute at 1000 rpm, and the clarified supernatant was used in subsequent assays. […] The cells were analyzed by flow cytometry, and internalized antibody-receptor complex was detected using a C6 Accuri Flow Cytometer (excitation with […] and emission collected with a 585/40 bandpass filter)."}, "[8]": {"conditions": "high PD-L1 cells, read-out: IRF Activation EC50 (nM), High PD-L1"}, "[9]": {"conditions": "no competition, read-out: IRF Activation EC50 (nM), No competition"}, "[10]": {"conditions": "read-out: IRF Activation EC50 (nM), With compound P27 (1 μM), competition with compound P27 1 μM"}},
  "note": "Where two headings read alike, the source gives them in different places.",
  "data": [
    {"molecule": "CCn1nc(C)cc1C(=O)Nc1nc2cc(C(N)=O)cc(OC)c2n1C/C=C/Cn1c(NC(=O)c2cc(C)nn2CC)nc2cc(C(N)=O)cc(OCCCNC(=O)CCNC(=O)OCCSSC[C@H](NC(=O)[C@H](CC(=O)O)NC(=O)[C@H](CC(=O)O)NC(=O)[C@H](CCCNC(=N)N)NC(=O)[C@H](CC(=O)O)NC(=O)CCCN3CCc4c(nc(C(=O)Nc5cccc(-c6cccc(NC(=O)c7nc8c(n7C)CCN(CCCC(=O)O)C8)c6Cl)c5Cl)n4C)C3)C(=O)O)c21", "note": "[Example 5]", "values": [
      {"measurement": "EC50", "setting": "[1]; [8]", "result": "< 50", "unit": "nM"},
      {"measurement": "EC50", "setting": "[1]; [9]", "result": "< 50", "unit": "nM"},
      {"measurement": "EC50", "setting": "[1]; [10]", "result": "200 to 1000", "unit": "nM"},
      {"measurement": "Potency shift", "setting": "[1]", "result": ">20"},
      {"measurement": "EC50", "setting": "[2]", "result": "200 to 1000", "unit": "nM"},
      {"measurement": "IC50", "setting": "[3]", "result": "< 0.05", "unit": "µM"},
      {"measurement": "IC50", "setting": "[4]", "result": "> 1", "unit": "µM"}
    ]},
    {"molecule": "CCn1nc(C)cc1C(=O)Nc1nc2cc(C(N)=O)cc(OC)c2n1C/C=C/Cn1c(NC(=O)c2cc(C)nn2CC)nc2cc(C(N)=O)cc(OCCCNC(=O)[C@H](CC(=O)O)NC(=O)[C@H](CC(=O)O)NC(=O)[C@H](CCCNC(=N)N)NC(=O)[C@H](CC(=O)O)NC(=O)CCCN3CCc4c(nc(C(=O)Nc5cccc(-c6cccc(NC(=O)c7nc8c(n7C)CCN(CCCC(=O)O)C8)c6Cl)c5Cl)n4C)C3)c21", "note": "[Example 1]", "values": [
      {"measurement": "EC50", "setting": "[1]; [8]", "result": "< 50", "unit": "nM"},
      {"measurement": "EC50", "setting": "[1]; [9]", "result": "< 50", "unit": "nM"},
      {"measurement": "EC50", "setting": "[1]; [10]", "result": "200 to 1000", "unit": "nM"},
      {"measurement": "Potency shift", "setting": "[1]", "result": ">100"},
      {"measurement": "EC50", "setting": "[2]", "result": "200 to 1000", "unit": "nM"},
      {"measurement": "IC50", "setting": "[3]", "result": "< 0.05", "unit": "µM"},
      {"measurement": "IC50", "setting": "[4]", "result": "> 1", "unit": "µM"},
      {"measurement": "EC50", "setting": "[5]", "result": "5.03 ± 1.26", "unit": "µM"},
      {"measurement": "EC50", "setting": "[6]", "result": 0.406, "unit": "µM"}
    ]},
    {"molecule": "Atezolizumab", "values": [
      {"measurement": "PD-L1 internalization (direct method)", "setting": "[7]", "result": "dos not cause PD-L1 internalization"}
    ]},
    {"molecule": "CCn1nc(C)cc1C(=O)Nc1nc2cc(C(N)=O)cc(OCCCNC(=O)[C@H](CC(=O)O)NC(=O)[C@H](CC(=O)O)NC(=O)[C@H](CCCNC(=N)N)NC(=O)[C@H](CC(=O)O)NC(=O)CCCN3CCc4c(nc(C(=O)Nc5cccc(-c6cccc(NC(=O)c7nc8c(n7C)CCN(CCCC(=O)O)C8)c6Cl)c5Cl)n4C)C3)c2n1C/C=C/Cn1c2nc(-c3cc(C)nn3CC)ncc2c2cc(C(N)=O)cc(OC)c21", "note": "[Example 7]", "values": [
      {"measurement": "EC50", "setting": "[1]; [8]", "result": "< 50", "unit": "nM"},
      {"measurement": "EC50", "setting": "[2]", "result": "50 to 200", "unit": "nM"},
      {"measurement": "IC50", "setting": "[3]", "result": "< 0.05", "unit": "µM"},
      {"measurement": "EC50", "setting": "[5]", "result": "2.01 ± 0.308", "unit": "µM"},
      {"measurement": "EC50", "setting": "[6]", "result": 0.643, "unit": "µM"}
    ]},
    {"molecule": "CCn1nc(C)cc1C(=O)Nc1nc2cc(C(N)=O)cc(OC)c2n1C/C=C/Cn1c(NC(=O)c2cc(C)nn2CC)nc2cc(C(N)=O)cc(OCCCNC(=O)CCNC(=O)OCc3ccc(NC(=O)[C@H](CCCNC(N)=O)NC(=O)[C@@H](NC(=O)CCCN4CCc5c(nc(C(=O)Nc6cccc(-c7cccc(NC(=O)c8nc9c(n8C)CCN(CCCC(=O)O)C9)c7Cl)c6Cl)n5C)C4)C(C)C)cc3)c21", "note": "[Example 2]", "values": [
      {"measurement": "EC50", "setting": "[1]; [8]", "result": "< 50", "unit": "nM"},
      {"measurement": "EC50", "setting": "[1]; [9]", "result": "< 50", "unit": "nM"},
      {"measurement": "EC50", "setting": "[1]; [10]", "result": "50 to 200", "unit": "nM"},
      {"measurement": "Potency shift", "setting": "[1]", "result": ">20"},
      {"measurement": "EC50", "setting": "[2]", "result": "50 to 200", "unit": "nM"},
      {"measurement": "IC50", "setting": "[3]", "result": "< 0.05", "unit": "µM"},
      {"measurement": "IC50", "setting": "[4]", "result": "> 1", "unit": "µM"}
    ]}
  ]
}
